The source of these data is patent publication EP1038880B1, “Androstanes and pregnanes for allosteric modulation of GABA receptor” (priority 1994, dated 1995).

Where “and” joins values, the source holds several entries; their conditions need not be identical. Equal entries are not always repeated.

The test system of test [1] is metrazol induced convulsions. In words: animal or person. Type of test: in vivo, mice. To be noted: for responders at 10 mg/kg: 10 min, 10 minutes prior to metrazol (85 mg/kg). The protocol:
Experiments were also performed to determine the physiological relevance of neuroactive steroid and GABA receptor interactions by assessing the ability of the compounds of and used in the invention to prevent metrazol induced convulsions in mice. Mice were injected with various doses of the test compounds of the invention, 10 minutes prior to the injection of metrazol. The time to onset of myoclomis (presence of forelimb clonic activity) induced by metrazol was determined by observing each mouse for a period of 30 minutes. […] Table 6: Antimetrazol Activity of Neuroactive Steroids in Mice
The anticonvulsant tests are similar to that described above. […] The number of animals with tonic and/or clonic convulsions was recorded. In the maximal electroshock test, 50 mA of current at 60 Hz was delivered through corneal electrodes for 200 msec to induce tonic seizure. The ability of compounds to abolish the tonic component was defined as the endpoint. General CNS depression potential was determined by a rotorod test 10 minutes after the injection of compounds where the number of mice staying on a rotating (6 rpm) rod for 1 minute in one of the three trials was determined. […] Table 7. Anticonvulsant Activity of Exemplified Neuroactive Steroids and those of Selected Clinically Useful Anticonvulsants in Mice

In test [2] the test system is N.I.H. Swiss-Webster mice. Put plainly: Elevated plus-maze. To be noted: for response vs control in vivo at 10 mg/kg: Mus musculus, ip, read-out: % Control. Type of test: in vivo. An excerpt:
The theoretical basis for the elevated plus-maze test is similar to that of the light/dark transition test. […] The apparatus consists of two open-arms and two enclosed-arms. The elevated plus-maze test allows for two measures of anxiety, the number of entries into the open-arms and the time spent on the open-arms, both expressed as a percentage of the total number of entries and time spent in/on both the open-arms and enclosed-arms.
Male N.LH. Swiss-Webster mice (Harlan, Indianapolis, IN) weighing 15-20 g were housed four per cage in polyethylene cages with sawdust bedding. The colony mom was environmentally controlled (22°C) with a 12^- hr light/dark cycle (0600-1800 hr). Food and water were available ad libitum, except during testing. The experiments were run from 0700-1500 hr and groups were counterbalance for time of day effects. Mice were only administered drug or vehicle once.
The apparatus included two open arms perpendicular to two enclosed arms elevated 50 cm from the floor. Each arm was 50 cm long and the walls of the enclosed arms were 40 cm tall. The maze was made completely of black plexiglass. Incandescent 200 W light bulbs were above each of the open arms to produce a strong contrast between the open arms and the enclosed arms.
Ten minutes after an injection, the N.I.H. Swiss-Webster mice were placed in the center of the plus-maze facing an open arm. During the 5 min test period, the number of entries onto the open arms and the enclosed arms, and the time spent in the open arms and enclosed arms were measured. All four paws had to be within an arm for the dependent variable to be measured. Therefore, the time spent in the center of the maze is not counted, so the total time spent in the open arms and the enclosed arms may not equal 5 min.

Another test addresses GR complex. Put plainly: [35S]TBPS binding assay (inhibition of [35S]TBPS binding, cerebral cortex P2 homogenate). Further details: species or system rat. To be noted: for IC50: 2 nM [35S]TBPS, rat cerebral cortex P2 homogenate; for IMAX: maximum inhibition of [35S]TBPS binding. The procedure, abridged:
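Rat (male Sprague-Dawley) cortical P2 homogenate (0.5 mg protein) in 50 mM Na/K phosphate pH 7.4, 200 mM NaCl, incubated with 2 nM [35S]TBPS plus steroid test compounds (DMSO) in presence of GABA plus (+)bicuculline, 25°C, 90 min. Filtration, scintillation counting; nonspecific binding defined with […].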

[3] abbreviates: Mus musculus, IP, 10 mg/kg, read-out: % Protected.

In the case of `CC(=O)c1ccc(C#C[C@@]2(O)CC[C@@]3(C)[C@@H](CC[C@@H]4[C@@H]3CC[C@]3(C)[C@@H](C(=O)COC(=O)CCC(=O)[O-])CC[C@@H]43)C2)cc1.[Na+]` [3β-(4'-Acetylphenylethynyl)-3α,21-dihidroxy-5α-pregnan-20-one 21-hemisuccinate sodium salt], the “% Protected” value in test [1] (PO, 10 mg/kg, water) is recorded as 80%. In addition, in test [2] (PO, 10 mg/kg, water), the “% Control” value was 166%.

With `CC(=O)c1ccc(C#CC2(O)CCC3(C)C(CCC4C3CCC3(C)C(C(=O)CO)CCC43)C2)cc1` (stereo not drawn) [3β-(4'-Acetylphenylethynyl)-3α-21-dihydroxy-5α-pregnan-20-one], at GR complex, the IC50 was determined as 4 nM and the IMAX was 92%. In test [1] (IP, 1 mg/kg, 50% hpbcd), the “% Protected” value was determined as 87.5%. In addition, the “% Control” value in test [2] (IP, 1 mg/kg, 50% hpbcd) was 150%.

`CC(=O)[C@H]1CC[C@H]2[C@@H]3CC[C@@H]4C[C@@](O)(C#Cc5ccc(C#N)cc5)CC[C@]4(C)[C@H]3CC[C@]12C` [3β-(4'-Cyanophenyl)ethynyl-3α-hydroxy-5β-pregnan-20-one]: at GR complex, the IC50 came out at 73 nM and the IMAX was determined as 92%. Besides, the responders at 10 mg/kg in test [1] (setting [3]) was 43.7%. In addition, the response vs control in vivo at 10 mg/kg in test [2] was 169%.

For the molecule `CC(=O)C1CCC2C3CCC4CC(O)(C#CCC(C)O)CCC4(C)C3CCC12C` (racemic) [3β-[4'(R/S) hydroxypentynyl]-3α-hydroxy-5β-pregnan-20-one], at GR complex, the IC50 is 71 nM and 94 nM; the IMAX is 103% and 104%. Further, the responders at 10 mg/kg in test [1] (setting [3]) was 87.5%.

At GR complex, `C[C@]12CC[C@@H](O)C[C@H]1CC[C@@H]1[C@@H]2CC[C@]2(C)[C@@H](C(=O)CSS(=O)(=O)[O-])CC[C@@H]12.[Na+]` [sodium S-(3α-hydroxy-5β-pregnan-20-on-21-yl) thiosulfate] came in with an IC50 of 268 nM and an IMAX of 88%. In addition, in test [1] (setting [3]), the responders at 10 mg/kg stood at 37.5%. For the same molecule, the response vs control in vivo at 10 mg/kg in test [2] came to 143%.

In the case of `C[C@@]1(O)CC[C@@]2(C)[C@@H](CC[C@@H]3[C@@H]2CC[C@]2(C)[C@@H](C(=O)CSS(=O)(=O)[O-])CC[C@@H]32)C1.[Na+]` [sodium S-(3α-hydroxy-3β-methyl-5α-pregnan-20-on-21-yl) thiosulfate], at GR complex, the IC50 is 151 nM and the IMAX came out at 101%. In addition, the responders at 10 mg/kg in test [1] (setting [3]) was 62.5%. In test [2], the response vs control in vivo at 10 mg/kg is 125%.

On GR complex, `CC(=O)[C@H]1CC[C@H]2[C@@H]3CC[C@@H]4C[C@@](O)(C#CCn5cccn5)CC[C@]4(C)[C@H]3CC[C@]12C` [3α-hydroxy-3β-[3-(1'H-pyrazol-1'-yl)-1-propynyl]-5β-pregnan-20-one] came in with an IC50 of 81 nM and an IMAX of 98%. Besides, the responders at 10 mg/kg in test [1] (setting [3]) was 25%. Moreover, the response vs control in vivo at 10 mg/kg in test [2] came to 116%.

At GR complex, `CC(=O)[C@H]1CC[C@H]2[C@@H]3CC[C@@H]4C[C@@](O)(C#Cc5ccccn5)CC[C@]4(C)[C@H]3CC[C@]12C` [3α-Hydroxy-3β-(2-pyridyl)ethynyl-5β-pregnan-20-one] displayed an IC50 of 108 nM and an IMAX of 98%. The responders at 10 mg/kg in test [1] (setting [3]) worked out at 37.5%. In test [2], the response vs control in vivo at 10 mg/kg amounted to 123%.

On to `C[C@]12CC[C@@H](O)C[C@H]1CC[C@@H]1[C@@H]2CC[C@]2(C)[C@@H](C(=O)Cn3nccn3)CC[C@@H]12` [3α-hydroxy-21-(2H-1,2,3-triazol-2-yl)-5β-pregnan-20-one], for which, on GR complex, the IC50 was determined as 56 nM and the IMAX came out at 79%. Moreover, in test [1] (setting [3]), the responders at 10 mg/kg came to 100%. Moreover, the response vs control in vivo at 10 mg/kg in test [2] is 164%.

For the molecule `CC(=O)C1CCC2C3CCC4CC(O)(C#CC(C)O)CCC4(C)C3CCC12C` (racemic) [3β-[3'(R/S)-hydroxy-1'-butynyl]-3α-hydroxy-5α-pregnan-20-one], at GR complex, the IC50 was 144 nM and 202 nM; the IMAX was 99% and 102%. For the same molecule, the responders at 10 mg/kg in test [1] (setting [3]) came to 50%.

At GR complex, `C[C@]12CC[C@](O)(C#CCCO)C[C@H]1CC[C@@H]1[C@@H]2CC[C@]2(C)[C@@H](C(=O)CSS(=O)(=O)O)CC[C@@H]12` [sodium S-[3α-hydroxy-3β-(4'-hydroxybutynyl)-5β-pregnan-20-on-21-yl] thiosulfate] returned an IC50 of 107 nM and an IMAX of 97%. Further, in test [1] (Mus musculus, PO, 40 mg/kg, water, read-out: % Protected), the responders at 40 mg/kg turned out to be 33.3%. In test [2], the response vs control in vivo at 10 mg/kg was found to be 135%.

With `CC(=O)c1ccc(C#C[C@@]2(O)CC[C@@]3(C)[C@H](CC[C@@H]4[C@@H]3CC[C@]3(C)[C@@H](C(C)=O)CC[C@@H]43)C2)s1` [3β-(5-Acetylthien-2-yl)ethynyl-3α-hydroxy-5β-pregnan-20-one], at GR complex, the IC50 was found to be 52 nM and the IMAX stood at 89%. Besides, the responders at 10 mg/kg in test [1] (setting [3]) stood at 25%. Moreover, the response vs control in vivo at 10 mg/kg in test [2] is 83%.

As for `CC(=O)[C@H]1CC[C@H]2[C@@H]3CC[C@@H]4C[C@@](O)(C#Cc5ccc(C)cc5)CC[C@]4(C)[C@H]3CC[C@]12C` [3α-hydroxy-3β-(4'-methylphenylethynyl)-5β-pregnan-20-one], at GR complex, the IC50 was determined as 88 nM and the IMAX was determined as 84%. Further, the responders at 10 mg/kg in test [1] (setting [3]) came out at 75%. The response vs control in vivo at 10 mg/kg in test [2] turned out to be 148%.

As for `CC(=O)c1ccc(C#CC2(O)CCC3(C)C(CCC4C3CCC3(C)C(C(=O)COC(=O)CCC(=O)[O-])CCC43)C2)cc1.[Na+]` (stereo not drawn) [3β-(4'-Acetylphenylethynyl)-3α,21-dihydroxy-5β-pregnan-20-one 21-hemisuccinate sodium salt], in test [1] (PO, 10 mg/kg, water), the “% Protected” value was found to be 75%. Besides, the “% Control” value in test [2] (PO, 10 mg/kg, water) was found to be 248%.

As for `CC(=O)C1CCC2C3CCC4CC(OC(=O)c5cccnc5)CCC4(C)C3CCC12C` (stereo not shown) [Example 3-Pyridyl], the “% Protection” value in test [1] (60 mg/kg, IP, 20hour) was 50(20hour) %.

Take `CC(=O)C1CCC2C3CCC4CC(OC(=O)C(C)C)CCC4(C)C3CCC12C` (stereo not shown) [Example 2-Propyl]: the “% Protection” value in test [1] (60 mg/kg, 1hr, IP) was determined as 75%.

On GR complex, `CC(=O)[C@H]1CC[C@H]2[C@@H]3CC[C@@H]4C[C@@](O)(C#CCCCC#N)CC[C@]4(C)[C@H]3CC[C@]12C` [3β-(5-Cyano-1-pentynyl)-3α-hydroxy-5β-pregnan-20-one] had an IC50 of 158 nM and an IMAX of 100%. The responders at 10 mg/kg in test [1] (setting [3]) worked out at 25%.

For `CCCCC(=O)OC1CCC2(C)C(CCC3C2CCC2(C)C(C(C)=O)CCC32)C1` (stereo not shown) [Butyl], the “% Protection” value in test [1] (mouse, in vivo) is 33%.

As for `CCCC(CCC)C(=O)OC1CCC2(C)C(CCC3C2CCC2(C)C(C(C)=O)CCC32)C1` (stereo not shown) [Example 4-Heptyl], in test [1] (60 mg/kg, IP, 4 hour), the “% Protection” value was 16 (4 hour) %.

As to `CC(=O)OCCCC#C[C@@]1(O)CC[C@@]2(C)[C@H](CC[C@@H]3[C@@H]2CC[C@]2(C)[C@@H](C(C)=O)CC[C@@H]32)C1` [3β-(5'-Acetoxy-1'-pentynyl)-3α-hydroxy-5β-pregnan-20-one], at GR complex, the IC50 was found to be 96 nM and the IMAX is on record as 98%. Besides, the responders at 10 mg/kg in test [1] (setting [3]) is 12.5%.

At GR complex, `CC(=O)[C@H]1CC[C@H]2[C@@H]3CC[C@@H]4C[C@@](O)(C#CCOc5ccncc5)CC[C@]4(C)[C@H]3CC[C@]12C` [3α-Hydroxy-3β-[3-(4'-pyridinyloxy)-1-propynyl]-5β-pregnan-20-one] gave an IC50 of 465 nM and an IMAX of 94%. Besides, the responders at 10 mg/kg in test [1] (setting [3]) turned out to be 12.5%.

On GR complex, `CC12CCC3C4CCC(O)(C(F)(F)F)CC4CCC3C1CCC2C(=O)CSS(=O)(=O)[O-].[Na+]` (stereo not drawn) [Sodium S-(3α-hydroxy-3β-trifluoromethyl-5β-19-norpregnan-20-on-21-yl) thiosulfate] returned an IC50 of 325 nM and an IMAX of 98%. The “% Protected” value in test [1] (IP, 40 mg/kg, water) is given as 37.5%.

With `COc1ccc(C(=O)OC2CCC3(C)C(CCC4C3CCC3(C)C(C(C)=O)CCC43)C2)cc1` (stereo not shown) [4-Methoxyphenyl], in test [1] (60 mg/kg, 1hr, IP), the “% Protection” value was determined as 17%.

Usually IC50 stands for the concentration that gives 50% inhibition. Lower therefore signals inhibition by little substance.
